What was measured:
solid tumours = tested on: solid tumours
Description: KHF-A-002-01. Phase I Clinical and Pharmacokinetic study to determine the safety of Kahalalide F administered as a weekly infusion over 1 hour in patients with solid tumours.
This trial was addressed to any solid tumours and was designed as a classical escalation. […] One cycle in this trial means a week, so 4 cycles mean 1 month of treatment.

[1] = tested on: human patients afflicted with cancer; test: Clinical programme (both phase I trials): toxicity summary; assay type: in vivo
Description: Clinical trials were carried out based on the following protocols:
(§1) The rate of subject entry and escalation to the next dose level will depend upon assessment of the safety profile of patients entered at each dose level. Toxicity will be evaluated and graded according to the Common Toxicity Criteria, version 2.0.

[2] = tested on: patients with advanced or metastatic prostate cancer; test: Phase I trial KHF-A-001-00: safety of kahalalide F daily x 5 over 1 hour infusion every 21 days; assay type: in vivo, human
Description: as §1
In order to minimize the number of patients treated at the subtoxic dose levels, a single patient will be treated per dose level with 100% dose escalation in the absence of any toxicity G2 (excluding alopecia) during their first course of treatment. After the occurrence of grade 2 toxicity (excluding asthenia, alopecia, nausea and vomiting or anemia), the dose level is expanded to three patients with only 50% incremental increase in dosage in advancing to the next dose level. For the occurrence of grade 3 non-hematological toxic effects the dose level should be expanded up to six patients. This second cohort of 3 patients will be included consecutively. If the first or second patient develops dose limiting toxicities no further patients will be treated at this dose level, it will be defined as MTD and the accrual will begin at a lower dose level. If only one DLT occurs at this dose level another 3 patients will be included at the next dose level with an increase of 25% only.
There is no intrapatient dose escalation, only de-escalation. If the toxicity is grade 3 or worse in a course of chemotherapy, then the dose is reduced one level for the next course.
The maximum tolerated dose (MTD) is defined as the dose at which at least 2 out of 3 or more than 3 patients experience DLT. However, it is possible that additional patients may experience DLT due to the timing of patient enrollment into that dose level.
Dose limiting toxicities (DLTs) are defined as follows: […]
Grade IV Neutropenia lasting for >5 days or with a temperature >38.5.
Grade IV thrombocytopenia.
Any other grade III or IV non hematological toxicity, excluding nausea, emesis and hypersensitivity reactions.
Grade III or IV liver toxicity if not reversible by day 21.
These toxicities are only considered DLTs if they happen during cycle 1. […]
A dose of 20 mcg/m2 was considered a safe starting dose on the basis of acute toxicity studies in animals. The trial was designed as an accelerated dose escalation (pharmacokinetically guided).

female mice = conditions: single bolus iv injection; cited from earlier work
[3] = 400 mcg/m2 weekly, 6 months (24 cycles)
[4] = 19 patients, daily x5 every 21 days, all dose levels
[5] = 20 patients, daily x5 every 21 days, all dose levels
[6] = 20 patients, daily x5 every 21 days, all dose levels, calcium adjusted
[7] = 20 patients, daily x5 every 21 days, all dose levels, not drug-related

C/C=C1\NC(=O)[C@H](Cc2ccccc2)NC(=O)[C@@H](C(C)C)NC(=O)[C@@H](C(C)CC)NC(=O)[C@H](NC(=O)C(NC(=O)[C@H](CCCN)NC(=O)[C@H]2CCCN2C(=O)[C@H](NC(=O)[C@@H](NC(=O)[C@@H](NC(=O)[C@H](NC(=O)CCCC(C)C)C(C)C)C(C)O)C(C)C)C(C)C)C(C)CC)C(C)OC(=O)[C@H](C(C)C)NC1=O (single isomer, unassigned) [kahalalide F]
overall response in a patient with hepatocellular carcinoma (solid tumours; [3]): stable disease
response in a patient with hepatocellular carcinoma (target lesion) (solid tumours; [3]): Partial response in one target lesion
efficacy in a patient with epidermoid carcinoma of the cavum (solid tumours; 400 mcg/m2 weekly, ORL exploration): Subjective improvement and non evaluable response
efficacy in a patient with non small cell lung cancer (solid tumours; 530 mcg/m2 weekly, 4 months (16 infusions)): without evidence of progression disease
Efficacy (tumour type with hints of efficacy) (solid tumours; Level III, dose 530 weekly): NSCLC
efficacy in one patient with peritoneal mesothelioma (solid tumours; weekly schedule): clinical benefit with reduction of ascytes volume
Grade 1-2 neutropenia, share of patients [1]: 10%
Grade 1 hypokalyemia, share of patients [1]: 20%
grade 1 hypophosphatemia, share of patients [1]: 10%
grade 1 renal toxicity, share of patients [1]: about 35%
grade 2 hypophosphatemia, share of patients [1]: 15%
grade 3-4 hematologic toxicities [1]: No grade 3-4 toxicities were reported
only drug related toxicity to date ([2]; 320 μg/m2/day, rapidly reversible, preliminary report, 7 patients): CTC grade 3 ASAT
Hematologic toxicity (worst per patient): Hemoglobin, Grade 1 [2, 4]: 63.2%
Hematologic toxicity (worst per patient): Hemoglobin, Grade 2 [2, 4]: 26.3%
Hematologic toxicity (worst per patient): Hemoglobin, Grade 3 [2, 4]: 0%
Hematologic toxicity (worst per patient): Hemoglobin, Grade 4 [2, 4]: 0%
Hematologic toxicity (worst per patient): Leukocytes, Grade 1 [2, 4]: 10.5%
Hematologic toxicity (worst per patient): Leukocytes, Grade 2 [2, 4]: 0%
Hematologic toxicity (worst per patient): Leukocytes, Grade 3 [2, 4]: 0%
Hematologic toxicity (worst per patient): Leukocytes, Grade 4 [2, 4]: 0%
Hematologic toxicity (worst per patient): Neutrophils, Grade 1 [2, 4]: 5%
Hematologic toxicity (worst per patient): Neutrophils, Grade 2 [2, 4]: 5%
Hematologic toxicity (worst per patient): Neutrophils, Grade 3 [2, 4]: 0%
Hematologic toxicity (worst per patient): Neutrophils, Grade 4 [2, 4]: 0%
Hematologic toxicity (worst per patient): Platelets, Grade 1 [2, 4]: 21.1%
Hematologic toxicity (worst per patient): Platelets, Grade 2 [2, 4]: 0%
Hematologic toxicity (worst per patient): Platelets, Grade 3 [2, 4]: 0%
Hematologic toxicity (worst per patient): Platelets, Grade 4 [2, 4]: 0%
Most frequently reported non-hematologic toxicities: Diarrhea, Grade 1 [2, 5]: 10
Most frequently reported non-hematologic toxicities: Diarrhea, Grade 2 [2, 5]: 5
Most frequently reported non-hematologic toxicities: Diarrhea, Grade 3 [2, 5]: 0
Most frequently reported non-hematologic toxicities: Diarrhea, Grade 4 [2, 5]: 0
Most frequently reported non-hematologic toxicities: Fatigue, Grade 1 [2, 5]: 35
Most frequently reported non-hematologic toxicities: Fatigue, Grade 2 [2, 5]: 10
Most frequently reported non-hematologic toxicities: Fatigue, Grade 3 [2, 5]: 25
Most frequently reported non-hematologic toxicities: Fatigue, Grade 4 [2, 5]: 0
Most frequently reported non-hematologic toxicities: Hypersensitivity, Grade 1 [2, 5]: 20
Most frequently reported non-hematologic toxicities: Hypersensitivity, Grade 2 [2, 5]: 5
Most frequently reported non-hematologic toxicities: Hypersensitivity, Grade 3 [2, 5]: 0
Most frequently reported non-hematologic toxicities: Hypersensitivity, Grade 4 [2, 5]: 0
Most frequently reported non-hematologic toxicities: Inject-site reaction, Grade 1 [2, 5]: 10
Most frequently reported non-hematologic toxicities: Inject-site reaction, Grade 2 [2, 5]: 20
Most frequently reported non-hematologic toxicities: Inject-site reaction, Grade 3 [2, 5]: 0
Most frequently reported non-hematologic toxicities: Inject-site reaction, Grade 4 [2, 5]: 0
Most frequently reported non-hematologic toxicities: Nausea, Grade 1 [2, 5]: 15
Most frequently reported non-hematologic toxicities: Nausea, Grade 2 [2, 5]: 10
Most frequently reported non-hematologic toxicities: Nausea, Grade 3 [2, 5]: 0
Most frequently reported non-hematologic toxicities: Nausea, Grade 4 [2, 5]: 0
Most frequently reported non-hematologic toxicities: Periph-sens neuro, Grade 1 [2, 5]: 20
Most frequently reported non-hematologic toxicities: Periph-sens neuro, Grade 2 [2, 5]: 0
Most frequently reported non-hematologic toxicities: Periph-sens neuro, Grade 3 [2, 5]: 5
Most frequently reported non-hematologic toxicities: Periph-sens neuro, Grade 4 [2, 5]: 0
Most frequently reported non-hematologic toxicities: Vomiting, Grade 1 [2, 5]: 15
Most frequently reported non-hematologic toxicities: Vomiting, Grade 2 [2, 5]: 10
Most frequently reported non-hematologic toxicities: Vomiting, Grade 3 [2, 5]: 0
Most frequently reported non-hematologic toxicities: Vomiting, Grade 4 [2, 5]: 0
Non-hematologic toxicity, lab abnormalities per patient: Albumin, Grade 1 [2, 5]: 30%
Non-hematologic toxicity, lab abnormalities per patient: Albumin, Grade 2 [2, 5]: 10%
Non-hematologic toxicity, lab abnormalities per patient: Albumin, Grade 3 [2, 5]: 5%
Non-hematologic toxicity, lab abnormalities per patient: Albumin, Grade 4 [2, 5]: 0%
Non-hematologic toxicity, lab abnormalities per patient: Bilirubin, Grade 1 [2, 5]: 10%
Non-hematologic toxicity, lab abnormalities per patient: Bilirubin, Grade 2 [2, 5]: 0%
Non-hematologic toxicity, lab abnormalities per patient: Bilirubin, Grade 3 [2, 5]: 0%
Non-hematologic toxicity, lab abnormalities per patient: Bilirubin, Grade 4 [2, 5]: 0%
Non-hematologic toxicity, lab abnormalities per patient: CPK, Grade 1 [2, 5]: 35%
Non-hematologic toxicity, lab abnormalities per patient: CPK, Grade 2 [2, 5]: 0%
Non-hematologic toxicity, lab abnormalities per patient: CPK, Grade 3 [2, 5]: 0%
Non-hematologic toxicity, lab abnormalities per patient: CPK, Grade 4 [2, 5]: 0%
Non-hematologic toxicity, lab abnormalities per patient: Creatinine, Grade 1 [2, 5]: 35%
Non-hematologic toxicity, lab abnormalities per patient: Creatinine, Grade 2 [2, 5]: 0%
Non-hematologic toxicity, lab abnormalities per patient: Creatinine, Grade 3 [2, 5]: 0%
Non-hematologic toxicity, lab abnormalities per patient: Creatinine, Grade 4 [2, 5]: 0%
Non-hematologic toxicity, lab abnormalities per patient: GGT, Grade 1 [2, 5]: 35%
Non-hematologic toxicity, lab abnormalities per patient: GGT, Grade 2 [2, 5]: 15%
Non-hematologic toxicity, lab abnormalities per patient: GGT, Grade 3 [2, 5]: 25%
Non-hematologic toxicity, lab abnormalities per patient: GGT, Grade 4 [2, 5]: 5%
Non-hematologic toxicity, lab abnormalities per patient: GOT, Grade 1 [2, 5]: 40%
Non-hematologic toxicity, lab abnormalities per patient: GOT, Grade 2 [2, 5]: 15%
Non-hematologic toxicity, lab abnormalities per patient: GOT, Grade 3 [2, 5]: 15%
Non-hematologic toxicity, lab abnormalities per patient: GOT, Grade 4 [2, 5]: 10%
Non-hematologic toxicity, lab abnormalities per patient: GPT, Grade 1 [2, 5]: 15%
Non-hematologic toxicity, lab abnormalities per patient: GPT, Grade 2 [2, 5]: 25%
Non-hematologic toxicity, lab abnormalities per patient: GPT, Grade 3 [2, 5]: 20%
Non-hematologic toxicity, lab abnormalities per patient: GPT, Grade 4 [2, 5]: 10%
Non-hematologic toxicity, lab abnormalities per patient: Hypo P, Grade 1 [2, 5]: 10%
Non-hematologic toxicity, lab abnormalities per patient: Hypo P, Grade 2 [2, 5]: 15%
Non-hematologic toxicity, lab abnormalities per patient: Hypo P, Grade 3 [2, 5]: 0%
Non-hematologic toxicity, lab abnormalities per patient: Hypo P, Grade 4 [2, 5]: 0%
Non-hematologic toxicity, lab abnormalities per patient: HypoK+, Grade 1 [2, 5]: 20%
Non-hematologic toxicity, lab abnormalities per patient: HypoK+, Grade 2 [2, 5]: 0%
Non-hematologic toxicity, lab abnormalities per patient: HypoK+, Grade 3 [2, 5]: 0%
Non-hematologic toxicity, lab abnormalities per patient: HypoK+, Grade 4 [2, 5]: 0%
Non-hematologic toxicity, lab abnormalities per patient: HypoNa+, Grade 1 [2, 5]: 10%
Non-hematologic toxicity, lab abnormalities per patient: HypoNa+, Grade 2 [2, 5]: 0%
Non-hematologic toxicity, lab abnormalities per patient: HypoNa+, Grade 3 [2, 5]: 5%
Non-hematologic toxicity, lab abnormalities per patient: HypoNa+, Grade 4 [2, 5]: 5%
Non-hematologic toxicity, lab abnormalities per patient: HypoCa*, Grade 1 [2, 6]: 65%
Non-hematologic toxicity, lab abnormalities per patient: HypoCa*, Grade 2 [2, 6]: 0%
Non-hematologic toxicity, lab abnormalities per patient: HypoCa*, Grade 3 [2, 6]: 0%
Non-hematologic toxicity, lab abnormalities per patient: HypoCa*, Grade 4 [2, 6]: 0%
Most frequently reported non-hematologic toxicities: Hypertension, Grade 1 [2, 7]: 0
Most frequently reported non-hematologic toxicities: Hypertension, Grade 2 [2, 7]: 0
Most frequently reported non-hematologic toxicities: Hypertension, Grade 3 [2, 7]: 15
Most frequently reported non-hematologic toxicities: Hypertension, Grade 4 [2, 7]: 0
Non-hematologic toxicity, lab abnormalities per patient: Alk. phosphatase, Grade 1 [2, 7]: 35%
Non-hematologic toxicity, lab abnormalities per patient: Alk. phosphatase, Grade 2 [2, 7]: 20%
Non-hematologic toxicity, lab abnormalities per patient: Alk. phosphatase, Grade 3 [2, 7]: 25%
Non-hematologic toxicity, lab abnormalities per patient: Alk. phosphatase, Grade 4 [2, 7]: 5%
Worst toxicity ([2]; Level I, dose 20 mcg/m2, 1 patient): none
Worst toxicity ([2]; Level II, dose 40, 1 patient): none
Worst toxicity ([2]; Level III, dose 80, 1 patient): none
Worst toxicity ([2]; Level IV, dose 160, 1 patient): none
Worst toxicity ([2]; Level VI, dose 425, 3 patients): none
Worst toxicity ([2]; Level VIII, dose 700, 3 patients): none
hematological toxicity ([2]; daily x5 schedule): no hematological toxicity was seen
most commonly seen liver toxicity in the MTD ([2]; daily x5 schedule): grade 4 transaminases elevation
maximum tolerated dose (MTD) (female mice): 0.28 mg/kg
